Earlier results on two compounds are cited in paper PMC5337940, “Sansanmycin natural product analogues as potent and selective anti-mycobacterials that inhibit lipid I biosynthesis” (Nature Communications, 2017).

In brackets after ≈: the same amount, converted by molar mass.

The data set concerns H37Rv. Details: method as in Xie et al. 14, 15. The following applies: isolated natural products; ref Xie et al. 14, 15; cited from earlier work.

With `CSCC[C@H](NC(=O)N[C@@H](Cc1c[nH]c2ccccc12)C(=O)O)C(=O)N[C@H](C(=O)N/C=C1/C[C@@H](O)[C@H](n2ccc(=O)[nH]c2=O)O1)[C@H](C)N(C)C(=O)[C@@H](N)c1cccc(O)c1` [Compound 1, Sansanmycin A], the “MIC (H37Rv)” value is 18.5 µM (≈ 15.7 µg/mL). For the compound `C[C@@H]([C@H](NC(=O)[C@H](CC[S+](C)[O-])NC(=O)N[C@@H](Cc1c[nH]c2ccccc12)C(=O)O)C(=O)N/C=C1/C[C@@H](O)[C@H](n2ccc(=O)[nH]c2=O)O1)N(C)C(=O)[C@@H](N)c1cccc(O)c1` (some centres unmarked) [Compound 3, Sansanmycin C], the “MIC (H37Rv)” value was > 36.3 µM.
